Data taken from ChEMBL document CHEMBL1137877, “Synthesis and evaluation of 4-(1-aminoalkyl)-N-(4-pyridyl)cyclohexanecarboxamides as Rho kinase inhibitors and neurite outgrowth promoters” (2004).

These molecules were tested on NG108-15 (assay: Mean percent neurite outgrowth (cells with neurites longer than cell body/total cells) was determined in NG108-15 cells after 4 hr incubation at 35 uM).
Format: functional, Mus musculus x Rattus norvegicus

Point of comparison: `CCC[C@@H](N)C1CCC(C(=O)Nc2ccncc2)CC1.Cl.Cl` (single isomer, unassigned; (+)), Activity 48%. Against it:
- C[C@@H](N)[C@H]1CC[C@H](C(=O)Nc2ccncc2)CC1.Cl.Cl — higher, 82%
- C[C@@H](N)C1CCC(C(=O)Nc2ccncc2)CC1.Cl.Cl (stereo partly specified) — higher, 68%
- CCCCCCCC[C@@H](N)C1CCC(C(=O)Nc2ccncc2)CC1.Cl.Cl (stereo partly specified) — lower, 0%
- C[C@H](N)C1CCC(C(=O)Nc2ccncc2)CC1.Cl.Cl (stereo partly specified) — higher, 70%
- CCC[C@H](N)C1CCC(C(=O)Nc2ccncc2)CC1.Cl.Cl (stereo partly specified) — lower, 23%
